Measurements published in PubChem BioAssay AID248 (DTP/NCI, 2004).
Values joined by “and” are separate entries in the source; they are usually repeats but may differ in a detail not shown here. Identical values can stand only once. Toxic doses and inconclusive results are not listed. No stated cut-off is given here; in the data, active means T/C of 150% or more; inactive means T/C below 125%.

Tested on: L1210 leukemia ip in BDF1 mice, survival T/C
Test: NCI In Vivo Anticancer Drug Screen. Data for tumor model L1210 Leukemia (intraperitoneal) in B6D2F1 (BDF1) mice
Conditions: endpoint: mean survival time, higher = longer survival
Procedure, shortened: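 Antitumor effect is assessed in tumor-bearing animals. Survival in the compound arm is compared with a vehicle-dosed control arm and expressed as their quotient.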

[1] = dose: 50.0 mg/kg/injection, schedule: Q01DX001 (ip), vehicle: saline
[2] = dose: 50.0 mg/kg/injection, schedule: Q01DX009 (ip), vehicle: Klucel (hydroxypropylcellulose) (HPC)
[3] = dose: 100.0 mg/kg/injection, schedule: Q01DX001 (ip), vehicle: carboxymethylcellulose (CMC)
[4] = dose: 100.0 mg/kg/injection, schedule: Q01DX001 (ip), vehicle: saline
[5] = dose: 100.0 mg/kg/injection, schedule: Q01DX009 (ip), vehicle: Klucel (hydroxypropylcellulose) (HPC)
[6] = dose: 100.0 mg/kg/injection, schedule: Q01DX009 (ip), vehicle: saline
[7] = dose: 100.0 mg/kg/injection, schedule: Q04DX003 (ip), vehicle: saline
[8] = dose: 200.0 mg/kg/injection, schedule: Q01DX001 (ip), vehicle: carboxymethylcellulose (CMC)
[9] = dose: 200.0 mg/kg/injection, schedule: Q01DX009 (ip), vehicle: Klucel (hydroxypropylcellulose) (HPC)
[10] = dose: 200.0 mg/kg/injection, schedule: Q01DX009 (ip), vehicle: saline
[11] = dose: 200.0 mg/kg/injection, schedule: Q04DX003 (ip), vehicle: saline
[12] = dose: 400.0 mg/kg/injection, schedule: Q01DX009 (ip), vehicle: Klucel (hydroxypropylcellulose) (HPC)
[13] = dose: 400.0 mg/kg/injection, schedule: Q01DX009 (ip), vehicle: saline
[14] = dose: 400.0 mg/kg/injection, schedule: Q04DX003 (ip), vehicle: saline

Measured: T/C

Nc1ncnc2c1ncn2C1OC(CO)C(O)C1O (stereo not drawn)
inactive: dose: 6.25 mg/kg/injection, schedule: Q01DX009 (ip), vehicle: Klucel (hydroxypropylcellulose) (HPC) 115 % of control | dose: 7.8 mg/kg/injection, schedule: Q#A X012 (ip), vehicle: methylcellulose (MC) 102 % of control and 109 % of control | dose: 12.5 mg/kg/injection, schedule: Q01DX009 (ip), vehicle: Klucel (hydroxypropylcellulose) (HPC) 112 % of control | dose: 12.5 mg/kg/injection, schedule: Q04DX002 (ip), vehicle: Klucel (hydroxypropylcellulose) (HPC) 100 % of control | dose: 13.0 mg/kg/injection, schedule: Q#A X012 (ip), vehicle: methylcellulose (MC) 103 % of control and 109 % of control | dose: 22.0 mg/kg/injection, schedule: Q#A X012 (ip), vehicle: methylcellulose (MC) 102 % of control and 110 % of control | dose: 25.0 mg/kg/injection, schedule: Q01DX001 (ip), vehicle: saline 103 % of control | dose: 25.0 mg/kg/injection, schedule: Q01DX009 (ip), vehicle: Klucel (hydroxypropylcellulose) (HPC) 100 % of control and 108 % of control | dose: 25.0 mg/kg/injection, schedule: Q04DX002 (ip), vehicle: Klucel (hydroxypropylcellulose) (HPC) 107 % of control | dose: 25.0 mg/kg/injection, schedule: Q04DX003 (ip), vehicle: saline 105 % of control | dose: 36.0 mg/kg/injection, schedule: Q#A X012 (ip), vehicle: methylcellulose (MC) 106 % of control and 108 % of control | [1] 100 % of control | [2] 101 % of control and 107 % of control | dose: 50.0 mg/kg/injection, schedule: Q04DX002 (ip), vehicle: Klucel (hydroxypropylcellulose) (HPC) 97 % of control | dose: 50.0 mg/kg/injection, schedule: Q04DX003 (ip), vehicle: saline 116 % of control | dose: 60.0 mg/kg/injection, schedule: Q#A X012 (ip), vehicle: methylcellulose (MC) 106 % of control | [3] 100 % of control | [4] 100 % of control and 110 % of control | dose: 100.0 mg/kg/injection, schedule: Q01DX005 (ip), vehicle: saline 106 % of control and 95 % of control and 92 % of control | [5] 103 % of control | [6] 94 % of control | [7] 104 % of control and 112 % of control | dose: 118.0 mg/kg/injection, schedule: Q01DX005 (ip), vehicle: water 112 % of control | dose: 118.0 mg/kg/injection, schedule: Q01DX009 (ip), vehicle: water 112 % of control | dose: 150.0 mg/kg/injection, schedule: Q01DX009 (ip), vehicle: saline 105 % of control | dose: 177.0 mg/kg/injection, schedule: Q01DX005 (ip), vehicle: water 114 % of control | dose: 177.0 mg/kg/injection, schedule: Q01DX009 (ip), vehicle: saline with Tween-80 120 % of control | dose: 177.0 mg/kg/injection, schedule: Q01DX009 (ip), vehicle: water 111 % of control | [8] 100 % of control and 107 % of control | dose: 200.0 mg/kg/injection, schedule: Q01DX005 (ip), vehicle: saline 95 % of control and 101 % of control and 87 % of control | [9] 97 % of control | dose: 200.0 mg/kg/injection, schedule: Q01DX009 (ip), vehicle: carboxymethylcellulose (CMC) 114 % of control | [10] 102 % of control | [11] 94 % of control | dose: 266.0 mg/kg/injection, schedule: Q01DX005 (ip), vehicle: water 115 % of control | dose: 266.0 mg/kg/injection, schedule: Q01DX009 (ip), vehicle: saline with Tween-80 124 % of control | dose: 266.0 mg/kg/injection, schedule: Q01DX009 (ip), vehicle: water 112 % of control | dose: 300.0 mg/kg/injection, schedule: Q01DX009 (ip), vehicle: saline 102 % of control | dose: 400.0 mg/kg/injection, schedule: Q01DX001 (ip), vehicle: carboxymethylcellulose (CMC) 106 % of control and 109 % of control | dose: 400.0 mg/kg/injection, schedule: Q01DX005 (ip), vehicle: water 112 % of control | [12] 116 % of control | [13] 107 % of control | dose: 400.0 mg/kg/injection, schedule: Q01DX009 (ip), vehicle: water 117 % of control | [14] 88 % of control | dose: 500.0 mg/kg/injection, schedule: Q03HX024 (ip), vehicle: saline with Tween-80 124 % of control | dose: 600.0 mg/kg/injection, schedule: Q01DX005 (ip), vehicle: water 110 % of control | dose: 600.0 mg/kg/injection, schedule: Q01DX009 (ip), vehicle: saline 109 % of control | dose: 600.0 mg/kg/injection, schedule: Q01DX009 (ip), vehicle: water 119 % of control | dose: 600.0 mg/kg/injection, schedule: Q03HX024 (ip), vehicle: saline with Tween-80 113 % of control | dose: 800.0 mg/kg/injection, schedule: Q01DX001 (ip), vehicle: carboxymethylcellulose (CMC) 107 % of control | dose: 800.0 mg/kg/injection, schedule: Q01DX009 (ip), vehicle: Klucel (hydroxypropylcellulose) (HPC) 103 % of control | dose: 800.0 mg/kg/injection, schedule: Q01DX009 (ip), vehicle: carboxymethylcellulose (CMC) 122 % of control | dose: 900.0 mg/kg/injection, schedule: Q01DX005 (ip), vehicle: water 115 % of control | dose: 900.0 mg/kg/injection, schedule: Q01DX009 (ip), vehicle: water 122 % of control | dose: 1000.0 mg/kg/injection, schedule: Q01DX009 (ip), vehicle: carboxymethylcellulose (CMC) 112 % of control | dose: 1200.0 mg/kg/injection, schedule: Q01DX009 (ip), vehicle: carboxymethylcellulose (CMC) 118 % of control | dose: 1600.0 mg/kg/injection, schedule: Q01DX001 (ip), vehicle: carboxymethylcellulose (CMC) 112 % of control

COc1ccc(Cl)cc1NC(=O)Nc1cc(C)ccc1Cl
inactive: [5] 101 % of control | dose: 100.0 mg/kg/injection, schedule: Q04DX003 (ip), vehicle: Klucel (hydroxypropylcellulose) (HPC) 90 % of control | [9] 110 % of control | dose: 200.0 mg/kg/injection, schedule: Q04DX003 (ip), vehicle: Klucel (hydroxypropylcellulose) (HPC) 95 % of control | [12] 116 % of control | dose: 400.0 mg/kg/injection, schedule: Q04DX003 (ip), vehicle: Klucel (hydroxypropylcellulose) (HPC) 95 % of control

COc1cccc(C(Cc2ccc(N3C(N)=NC(N)=NC3(C)C)cc2)C(=O)Nc2ccc(S(=O)(=O)F)cc2)c1 (stereo not drawn)
inactive: dose: 50.0 mg/kg/injection, schedule: Q01DX001 (ip), vehicle: Klucel (hydroxypropylcellulose) (HPC) 99 % of control | dose: 100.0 mg/kg/injection, schedule: Q01DX001 (ip), vehicle: Klucel (hydroxypropylcellulose) (HPC) 99 % of control | dose: 200.0 mg/kg/injection, schedule: Q01DX001 (ip), vehicle: Klucel (hydroxypropylcellulose) (HPC) 96 % of control

CCCNC(Cc1ccccc1)c1ccco1 (stereo not drawn)
inactive: dose: 50.0 mg/kg/injection, schedule: Q01DX009 (ip), vehicle: saline 104 % of control | [6] 110 % of control | dose: 100.0 mg/kg/injection, schedule: Q04DX002 (ip), vehicle: saline 97 % of control | dose: 200.0 mg/kg/injection, schedule: Q04DX002 (ip), vehicle: saline 93 % of control

CN(Cc1ccc(Cl)cc1)C(=O)NCCCCCCNC(=O)N(C)Cc1ccc(Cl)cc1
inactive: [5] 100 % of control | [9] 94 % of control | [12] 92 % of control

CC12CC3CC(C)(C1)CC(O)(C3)C2
inactive: dose: 50.0 mg/kg/injection, schedule: Q01DX001 (ip), vehicle: carboxymethylcellulose (CMC) 101 % of control | [3] 98 % of control | [8] 92 % of control

COC1/C=C/OC2(C)Oc3c(C)c(O)c4c(O)c(c(/C=N/N5C(C)CN(Cc6ccccc6)CC5C)c(O)c4c3C2=O)NC(=O)C(C)=C/C=C/C(C)C(O)C(C)C(O)C(C)C(OC(C)=O)C1C (stereo not drawn)
inactive: [2] 91 % of control | [5] 93 % of control

c1cncc(CNc2ncn[nH]2)c1
inactive: [6] 103 % of control | [7] 97 % of control | [10] 97 % of control | [11] 103 % of control | [13] 103 % of control | [14] 95 % of control

Cc1ccc(N=NC2C(=O)c3ccccc3C2=O)cc1
inactive: [1] 100 % of control | [4] 100 % of control | dose: 200.0 mg/kg/injection, schedule: Q01DX001 (ip), vehicle: saline 97 % of control | dose: 400.0 mg/kg/injection, schedule: Q01DX001 (ip), vehicle: saline 103 % of control
